In ChEMBL document CHEMBL1130311, “Design and synthesis of a possible mimic of a thrombin-binding DNA aptamer” (Bioorg Med Chem Lett, 1997) one finds Activity data, which are given here for one molecule.

Active and inactive are the calls of the source. No cut-off for these calls is given here.

This test has as its target Prothrombin (Homo sapiens) (UniProt P00734). Nature of the test: Tested for thrombin inhibitory activity by fibrinogen dependent thrombin assay; Inactive.

For `Cc1cn([C@H]2C[C@@H]3OP(=O)(O)OC[C@H]4O[C@@H](n5cnc6c(O)nc(N)nc65)C[C@@H]4OP(=O)(O)OC[C@H]4O[C@@H](C[C@@H]4OP(=O)(O)OC(C)C)n4cc(c(=O)[nH]c4=O)COCOC[C@H]3O2)c(=O)[nH]c1=O`, the result was inactive.
